Reference: ChEMBL document CHEMBL4665642, “Anticancer profile of newly synthesized BRAF inhibitors possess 5-(pyrimidin-4-yl)imidazo[2,1-b]thiazole scaffold” (Bioorg Med Chem, 2019)

How the values were obtained:
Type in all cases: functional
Settings in all cases: read-out: Activity
[1] = system: MDA-MB-468; experiment: Cytotoxicity against human MDA-MB-468 cells assessed as cell viability at 10 uM incubated for 48 hrs by sulforhodamine B assay relative to control
[2] = system: BT-549; experiment: Cytotoxicity against human BT-549 cells assessed as cell viability at 10 uM incubated for 48 hrs by sulforhodamine B assay relative to control
[3] = system: MDA-MB-231; experiment: Cytotoxicity against human MDA-MB-231 cells assessed as cell viability at 10 uM incubated for 48 hrs by sulforhodamine B assay relative to control
[4] = system: MCF7; experiment: Cytotoxicity against human MCF7 cells assessed as cell viability at 10 uM incubated for 48 hrs by sulforhodamine B assay relative to control
[5] = system: DU-145; experiment: Cytotoxicity against human DU-145 cells assessed as cell viability at 10 uM incubated for 48 hrs by sulforhodamine B assay relative to control
[6] = system: PC-3; experiment: Cytotoxicity against human PC-3 cells assessed as cell viability at 10 uM incubated for 48 hrs by sulforhodamine B assay relative to control
[7] = system: TK-10; experiment: Cytotoxicity against human TK-10 cells assessed as cell viability at 10 uM incubated for 48 hrs by sulforhodamine B assay relative to control
[8] = system: SN12C; experiment: Cytotoxicity against human SN12C cells assessed as cell viability at 10 uM incubated for 48 hrs by sulforhodamine B assay relative to control
[9] = system: CAKI-1; experiment: Cytotoxicity against human CAKI-1 cells assessed as cell viability at 10 uM incubated for 48 hrs by sulforhodamine B assay relative to control
[10] = system: ACHN; experiment: Cytotoxicity against human ACHN cells assessed as cell viability at 10 uM incubated for 48 hrs by sulforhodamine B assay relative to control
[11] = system: 786-0; experiment: Cytotoxicity against human 786-0 cells assessed as cell viability at 10 uM incubated for 48 hrs by sulforhodamine B assay relative to control
[12] = system: SK-OV-3; experiment: Cytotoxicity against human SK-OV-3 cells assessed as cell viability at 10 uM incubated for 48 hrs by sulforhodamine B assay relative to control
[13] = system: NCI/ADR-RES; experiment: Cytotoxicity against human NCI/ADR-RES cells assessed as cell viability at 10 uM incubated for 48 hrs by sulforhodamine B assay relative to control
[14] = system: OVCAR-8; experiment: Cytotoxicity against human OVCAR-8 cells assessed as cell viability at 10 uM incubated for 48 hrs by sulforhodamine B assay relative to control
[15] = system: OVCAR-4; experiment: Cytotoxicity against human OVCAR-4 cells assessed as cell viability at 10 uM incubated for 48 hrs by sulforhodamine B assay relative to control
[16] = system: OVCAR-3; experiment: Cytotoxicity against human OVCAR-3 cells assessed as cell viability at 10 uM incubated for 48 hrs by sulforhodamine B assay relative to control
[17] = system: IGROV-1; experiment: Cytotoxicity against human IGROV-1 cells assessed as cell viability at 10 uM incubated for 48 hrs by sulforhodamine B assay relative to control
[18] = system: SK-MEL-28; experiment: Cytotoxicity against human SK-MEL-28 cells assessed as cell viability at 10 uM incubated for 48 hrs by sulforhodamine B assay relative to control
[19] = system: MDA-MB-435; experiment: Cytotoxicity against human MDA-MB-435 cells assessed as cell viability at 10 uM incubated for 48 hrs by sulforhodamine B assay relative to control
[20] = system: M14; experiment: Cytotoxicity against human M14 cells assessed as cell viability at 10 uM incubated for 48 hrs by sulforhodamine B assay relative to control
[21] = system: CCRF-CEM; experiment: Cytotoxicity against human CCRF-CEM cells assessed as cell viability at 10 uM incubated for 48 hrs by sulforhodamine B assay relative to control
[22] = system: HL-60(TB); experiment: Cytotoxicity against human HL-60(TB) cells assessed as cell viability at 10 uM incubated for 48 hrs by sulforhodamine B assay relative to control
[23] = system: K562; experiment: Cytotoxicity against human K562 cells assessed as cell viability at 10 uM incubated for 48 hrs by sulforhodamine B assay relative to control
[24] = system: RPMI-8226; experiment: Cytotoxicity against human RPMI-8226 cells assessed as cell viability at 10 uM incubated for 48 hrs by sulforhodamine B assay relative to control
[25] = system: SR; experiment: Cytotoxicity against human SR cells assessed as cell viability at 10 uM incubated for 48 hrs by sulforhodamine B assay relative to control
[26] = system: A549; experiment: Cytotoxicity against human A549 cells assessed as cell viability at 10 uM incubated for 48 hrs by sulforhodamine B assay relative to control
[27] = system: HOP-62; experiment: Cytotoxicity against human HOP-62 cells assessed as cell viability at 10 uM incubated for 48 hrs by sulforhodamine B assay relative to control
[28] = system: HOP-92; experiment: Cytotoxicity against human HOP-92 cells assessed as cell viability at 10 uM incubated for 48 hrs by sulforhodamine B assay relative to control
[29] = system: NCI-H226; experiment: Cytotoxicity against human NCI-H226 cells assessed as cell viability at 10 uM incubated for 48 hrs by sulforhodamine B assay relative to control
[30] = system: NCI-H23; experiment: Cytotoxicity against human NCI-H23 cells assessed as cell viability at 10 uM incubated for 48 hrs by sulforhodamine B assay relative to control
[31] = system: NCI-H322M; experiment: Cytotoxicity against human NCI-H322M cells assessed as cell viability at 10 uM incubated for 48 hrs by sulforhodamine B assay relative to control
[32] = system: NCI-H460; experiment: Cytotoxicity against human NCI-H460 cells assessed as cell viability at 10 uM incubated for 48 hrs by sulforhodamine B assay relative to control
[33] = system: COLO 205; experiment: Cytotoxicity against human COLO 205 cells assessed as cell viability at 10 uM incubated for 48 hrs by sulforhodamine B assay relative to control
[34] = system: HCT-15; experiment: Cytotoxicity against human HCT-15 cells assessed as cell viability at 10 uM incubated for 48 hrs by sulforhodamine B assay relative to control
[35] = system: HCT-29; experiment: Cytotoxicity against human […] cells assessed as cell viability at 10 uM incubated for 48 hrs by sulforhodamine B assay relative to control
[36] = system: KM12; experiment: Cytotoxicity against human KM12 cells assessed as cell viability at 10 uM incubated for 48 hrs by sulforhodamine B assay relative to control
[37] = system: SF-268; experiment: Cytotoxicity against human SF-268 cells assessed as cell viability at 10 uM incubated for 48 hrs by sulforhodamine B assay relative to control
[38] = system: SF-295; experiment: Cytotoxicity against human SF-295 cells assessed as cell viability at 10 uM incubated for 48 hrs by sulforhodamine B assay relative to control
[39] = system: SNB-19; experiment: Cytotoxicity against human SNB-19 cells assessed as cell viability at 10 uM incubated for 48 hrs by sulforhodamine B assay relative to control
[40] = system: SNB-75; experiment: Cytotoxicity against human SNB-75 cells assessed as cell viability at 10 uM incubated for 48 hrs by sulforhodamine B assay relative to control
[41] = system: LOX IMVI; experiment: Cytotoxicity against human LOX IMVI cells assessed as cell viability at 10 uM incubated for 48 hrs by sulforhodamine B assay relative to control

## O=C(NCCNc1nccc(-c2c(-c3cccc(F)c3)nc3sccn23)n1)c1ccccc1
[1]
  viability at 10 µM: 57.4%
[2]
  viability at 10 µM: 71.2%
[3]
  viability at 10 µM: 65.1%
[4]
  viability at 10 µM: 23.7%
[5]
  viability at 10 µM: 64.5%
[6]
  viability at 10 µM: 62.9%
[7]
  viability at 10 µM: 73%
[8]
  viability at 10 µM: 48.2%
[9]
  viability at 10 µM: 36.4%
[10]
  viability at 10 µM: 29.1%
[11]
  viability at 10 µM: 45.4%
[12]
  viability at 10 µM: 75.1%
[13]
  viability at 10 µM: 64.9%
[14]
  viability at 10 µM: 46.8%
[15]
  viability at 10 µM: 55.4%
[16]
  viability at 10 µM: 67.8%
[17]
  viability at 10 µM: 16.5%
[18]
  viability at 10 µM: 58.7%
[19]
  viability at 10 µM: 27%
[20]
  viability at 10 µM: 28.4%
[21]
  viability at 10 µM: 40.9%
[22]
  viability at 10 µM: 83.7%
[23]
  viability at 10 µM: 44%
[24]
  viability at 10 µM: 45.7%
[25]
  viability at 10 µM: 29.4%
[26]
  viability at 10 µM: 26.7%
[27]
  viability at 10 µM: 77.5%
[28]
  viability at 10 µM: 82.2%
[29]
  viability at 10 µM: 44.3%
[30]
  viability at 10 µM: 64.9%
[31]
  viability at 10 µM: 64.8%
[32]
  viability at 10 µM: 28.8%
[33]
  viability at 10 µM: 10.4%
[34]
  viability at 10 µM: 34.6%
[35]
  viability at 10 µM: 25.8%
[36]
  viability at 10 µM: 56.6%
[37]
  viability at 10 µM: 58.8%
[38]
  viability at 10 µM: 71.4%
[39]
  viability at 10 µM: 63.5%
[40]
  viability at 10 µM: 54.6%
[41]
  viability at 10 µM: 35.1%

## Cc1ccc(S(=O)(=O)NCCCNc2nccc(-c3c(-c4cccc(F)c4)nc4sccn34)n2)cc1
[1]
  viability at 10 µM: 78.2%
[2]
  viability at 10 µM: 84.5%
[3]
  viability at 10 µM: 84.5%
[4]
  viability at 10 µM: 69.4%
[5]
  viability at 10 µM: 77%
[6]
  viability at 10 µM: 67.7%
[7]
  viability at 10 µM: 99.4%
[8]
  viability at 10 µM: 70.5%
[9]
  viability at 10 µM: 46.9%
[10]
  viability at 10 µM: 65.5%
[11]
  viability at 10 µM: 78.4%
[12]
  viability at 10 µM: 75.2%
[13]
  viability at 10 µM: 79.7%
[14]
  viability at 10 µM: 60.3%
[15]
  viability at 10 µM: 66.2%
[16]
  viability at 10 µM: 89%
[17]
  viability at 10 µM: 37.8%
[18]
  viability at 10 µM: 106%
[19]
  viability at 10 µM: 48.8%
[20]
  viability at 10 µM: 80.7%
[21]
  viability at 10 µM: 62.7%
[22]
  viability at 10 µM: 119%
[23]
  viability at 10 µM: 52%
[24]
  viability at 10 µM: 68.2%
[25]
  viability at 10 µM: 102%
[26]
  viability at 10 µM: 73%
[27]
  viability at 10 µM: 101%
[28]
  viability at 10 µM: 112%
[29]
  viability at 10 µM: 53.7%
[30]
  viability at 10 µM: 96.2%
[31]
  viability at 10 µM: 89.6%
[32]
  viability at 10 µM: 65.1%
[33]
  viability at 10 µM: 55.5%
[34]
  viability at 10 µM: 47.1%
[35]
  viability at 10 µM: 37.3%
[36]
  viability at 10 µM: 67.3%
[37]
  viability at 10 µM: 65.9%
[38]
  viability at 10 µM: 84.1%
[39]
  viability at 10 µM: 92.2%
[40]
  viability at 10 µM: 98.7%
[41]
  viability at 10 µM: 38%
